The test concerns the target T1, FGFR3 (Homo sapiens, UniProt P22607).
T1 construct: purchased Thermo Fisher Scientific (Life Technologies) SelectScreen
Kind of test: SelectScreen Z'LYTE. Type of test: biochemical. The procedure, abridged: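 NU5455 was profiled across the SelectScreen Broad panel of kinase activity and binding assays. Z'LYTE reactions such as CSF1R ran at apparent Km ATP, while the Adapta CAMK1 assay used ATP listed as 10. Values are given as percent.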

In paper PMC6934184, “Selective DNA-PKcs inhibition extends the therapeutic index of localized radiotherapy and chemotherapy” (The Journal of Clinical Investigation, 2019) one finds inhibition data, which are given here for one compound.

T1 sequence (P22607 23-806): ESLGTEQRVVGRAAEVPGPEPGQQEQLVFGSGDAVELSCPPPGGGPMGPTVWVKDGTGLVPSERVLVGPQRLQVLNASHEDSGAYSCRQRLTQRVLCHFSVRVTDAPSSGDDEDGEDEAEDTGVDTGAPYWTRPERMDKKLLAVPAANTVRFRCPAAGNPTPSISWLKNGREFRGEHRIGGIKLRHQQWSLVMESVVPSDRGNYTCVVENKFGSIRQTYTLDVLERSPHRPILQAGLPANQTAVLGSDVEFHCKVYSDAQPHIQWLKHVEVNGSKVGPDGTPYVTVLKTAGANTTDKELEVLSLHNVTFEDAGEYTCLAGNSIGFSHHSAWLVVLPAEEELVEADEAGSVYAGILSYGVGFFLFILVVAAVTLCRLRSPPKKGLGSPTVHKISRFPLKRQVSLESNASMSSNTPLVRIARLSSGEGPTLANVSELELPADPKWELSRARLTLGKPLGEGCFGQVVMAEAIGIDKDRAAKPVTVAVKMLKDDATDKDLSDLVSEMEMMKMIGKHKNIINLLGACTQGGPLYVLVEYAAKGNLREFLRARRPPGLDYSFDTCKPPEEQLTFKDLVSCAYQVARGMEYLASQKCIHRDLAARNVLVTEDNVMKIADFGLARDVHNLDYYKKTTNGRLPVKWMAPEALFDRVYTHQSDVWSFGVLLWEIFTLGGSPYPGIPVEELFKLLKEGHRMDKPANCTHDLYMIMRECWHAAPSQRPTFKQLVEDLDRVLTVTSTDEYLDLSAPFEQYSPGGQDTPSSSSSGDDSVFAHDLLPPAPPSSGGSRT

The inhibition is how much of the control response was suppressed. Read a low inhibition as little suppression. `CN(C(=O)CN1CCOCC1)c1ccc2sc3c(-c4cccc5c(=O)cc(N6CC7CCC(C6)O7)oc45)cccc3c2c1` [NU5455]: the inhibition at 1 µM came to 0.9%.
